This passage reports TGI and GI50 results from PubChem BioAssay (NCI).

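Growth conditions: 96-well plates. Treatment: test compound, 48 hours, 5 concentrations. Analysis: linear interpolation between bracketing concentrations; unreached endpoints set to highest concentration. At the GI50, growth is halved. At the TGI there is no net growth.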

Test systems include DU-145 prostate; HL-60(TB) leukemia; HOP-92 NSCLC; HT29 colon; LOX IMVI melanoma; NCI-H226 lung; OVCAR-3 ovarian; SW-620 colon; U251 CNS; UO-31 renal.
What all share (assay): NCI anticancer screen, dose series, 48 h

Turning to `COC(=O)CCCC1(CCCC(=O)OC)CCCCCCCCC(CCCC(=O)OC)(CCCC(=O)OC)C(=O)C1=O`, the TGI in the assay with DU-145 prostate was more than 100 µM; in the assay on HL-60(TB) leukemia it was 12.2 µM; with HOP-92 NSCLC, 39 µM; in the assay on HT29 colon, more than 100 µM; in the assay on LOX IMVI melanoma, 48.5 µM; in the assay with NCI-H226 lung it was more than 100 µM. Besides, the TGI was 79.7 µM with OVCAR-3 ovarian, more than 100 µM in the assay on SW-620 colon, 40.7 µM in the assay with U251 CNS and 0.3 µM in the assay on UO-31 renal.
For the compound `CC(C)NCC(O)c1ccc(O)c2ncccc12` (stereo not given), the TGI with DU-145 prostate, with HL-60(TB) leukemia, in the assay on HOP-92 NSCLC, in the assay with HT29 colon, with LOX IMVI melanoma and in the assay on NCI-H226 lung was more than 100 µM in each case. The TGI with OVCAR-3 ovarian was 55 µM; with SW-620 colon it was more than 100 µM; in the assay on U251 CNS, more than 100 µM; in the assay on UO-31 renal, more than 100 µM.
Consider `c1ccc(C(c2cccc3c2ccc2ccccc23)C(c2ccccc2)c2cccc3c2ccc2ccccc23)cc1` (stereo not given), for which the TGI in the assay with DU-145 prostate, in the assay with HL-60(TB) leukemia, in the assay on HOP-92 NSCLC, with HT29 colon, in the assay on LOX IMVI melanoma and with NCI-H226 lung was more than 100 µM throughout. The TGI in the assay on OVCAR-3 ovarian, with SW-620 colon, with U251 CNS and in the assay on UO-31 renal was more than 100 µM throughout.
As for `O=S(c1ccccc1)C1CC2CC3(CCC21O)OCCO3` (stereo not given), the TGI with DU-145 prostate, in the assay on HL-60(TB) leukemia, in the assay with HOP-92 NSCLC, in the assay with HT29 colon, in the assay with LOX IMVI melanoma and in the assay with NCI-H226 lung was more than 100 µM in each case. Moreover, the TGI in the assay with OVCAR-3 ovarian, in the assay with SW-620 colon, in the assay with U251 CNS and in the assay on UO-31 renal was more than 100 µM each time.
Regarding `CCCCC(=C=C(C)CO)C1CCCN1C(=O)OC(C)(C)C` (stereo not given), the TGI with DU-145 prostate stood at 34.1 µM; with HL-60(TB) leukemia, 32.5 µM; in the assay with HOP-92 NSCLC, 25.6 µM; with HT29 colon, 34.3 µM; in the assay with LOX IMVI melanoma, 30.4 µM; with NCI-H226 lung, 33.9 µM. The TGI in the assay with OVCAR-3 ovarian was 31.8 µM; in the assay with SW-620 colon it was 89.8 µM; in the assay with U251 CNS, 31.7 µM; with UO-31 renal it was 37.7 µM.
As for `C=CCNc1nc(O)c(/C=C2\C=Nc3ncccc32)s1`, the GI50 with DU-145 prostate was 2.21 µM; in the assay with HL-60(TB) leukemia it was 2.1 µM; in the assay on HOP-92 NSCLC it was 0.227 µM; in the assay with HT29 colon, 3.05 µM; with LOX IMVI melanoma it was 2.73 µM; in the assay on NCI-H226 lung, 1.99 µM. Further, the GI50 was 2.21 µM in the assay with OVCAR-3 ovarian, 2.13 µM in the assay with SW-620 colon, 2.07 µM in the assay on U251 CNS and 3.36 µM with UO-31 renal. Moreover, the TGI in the assay with DU-145 prostate is 21.6 µM; in the assay on HL-60(TB) leukemia, 5.27 µM; in the assay with HOP-92 NSCLC, 6.38 µM; in the assay on HT29 colon, more than 100 µM; in the assay with LOX IMVI melanoma, more than 100 µM; with NCI-H226 lung, 21.6 µM. Further, the TGI in the assay on OVCAR-3 ovarian is 7.29 µM; in the assay on SW-620 colon it was 9.25 µM; in the assay on U251 CNS, 4.35 µM; with UO-31 renal, more than 100 µM.
Consider `COc1cc(OCc2nc3cc(C(F)(F)F)ccc3nc2-c2ccccc2)cc(OC)c1OC`, for which the TGI in the assay on DU-145 prostate, in the assay with HL-60(TB) leukemia, in the assay with HOP-92 NSCLC, in the assay on HT29 colon, with LOX IMVI melanoma and in the assay on NCI-H226 lung was more than 100 µM each time. Further, the TGI with OVCAR-3 ovarian, with SW-620 colon, in the assay with U251 CNS and with UO-31 renal was more than 100 µM each time.
For the compound `Cc1nc(N)sc1C(=O)Nc1ncn[nH]1`, the TGI is more than 100 µM in the assay on DU-145 prostate; 49.9 µM with HL-60(TB) leukemia; more than 100 µM with HOP-92 NSCLC; more than 100 µM in the assay on HT29 colon; more than 100 µM in the assay on LOX IMVI melanoma; more than 100 µM with NCI-H226 lung. Besides, the TGI in the assay on OVCAR-3 ovarian, with SW-620 colon, in the assay on U251 CNS and in the assay with UO-31 renal was more than 100 µM throughout.
